# Measurements published in patent US7824680B2, “Methods for inhibiting angiogenesis” (The Regents of the University of California, priority 2001, dated 2010).
# Test system: mice
# Test: Murine bFGF matrigel plug angiogenesis, lectin-FITC fluorescence
# Type: in vivo
# Settings: bFGF matrigel s.c. containing 25 μg/ml antibody or 1 mM peptide; 72 hours
# Experimental: Angiogenesis was induced by subcutaneous injection of 400 μl of growth factor depleted matrigel supplemented 0.4 μg/ml bFGF and saline, 25 μg/ml function blocking anti-α4β1 antibodies or control antibodies. Alternatively, mice were injected with matrigel containing bFGF and 1 mM of the sequence EILDVPST (SEQ ID NO:52) or the control sequence EILEVPST (SEQ ID NO:53). After 72 hours, mice were injected with Bandiera Simplicifolia lectin-FITC conjugate. After 15 minutes, matrigel plugs were excised and homogenized. Fluorescence intensity within the lysed plug was determined and correlated with degree of angiogenesis as determined by standard immunohistochemical analyses.
sequence,measurement,value
EILDVPST [peptide antagonist of integrin α4β1],growth factor-stimulated angiogenesis (fluorescence intensity within the lysed matrigel plug),selectively and specifically inhibited
